Earlier results on 1 compound are cited in patent publication US20260256768A1, “DRY POWDER COMPOSITIONS OF BEDAQUILINE AND SALTS AND METHODS OF USE THEREOF” (Insmed Incorporated, priority 2022, published 2026).

The subject of one data set is lung tumor. Particulars: animal model.
The subject of data set [1] is non-small cell lung cancer cell lines. The note with it: two non-small cell lung cancer cell lines.
Data set [2] relates to MCF7 breast cancer cells-derived cancer stem-like cells.
For a further data set, the system named is cancer metastasis. Particulars: in vivo.

For the compound `COc1nc2ccc(Br)cc2cc1[C@@H](c1ccccc1)[C@@](O)(CCN(C)C)c1cccc2ccccc12` [bedaquiline, (1R,2S)-1-(6-bromo-2-methoxyquinolin-3-yl)-4-(dimethylamino)-2-naphthalen-1-yl-1-phenylbutan-2-ol], the “effect on lung tumor growth and angiogenesis” value in the data set on lung tumor is “inhibit lung tumor growth and angiogenesis”. Moreover, the cytotoxicity entry in data set [1] is given as “cytotoxic properties”. The “effect on propagation and expansion of cancer stem-like cells” value in data set [2] was “block the propagation and expansion”. The “effect on cancer metastasis” value in the data set with cancer metastasis was “inhibit cancer metastasis”.
